Measured values from the supplement of paper PMC7661543.
± gives the standard deviation of the averaged measurements.

The compounds below were run on HCC-38 (assay: relative cell number vs DMSO control (72 h) (% of DMSO); higher = less growth inhibition (more cells)). Settings: sgRNA knockout: sgNT, 10000 nM.
Experimental: (§1)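 QMAP-Seq: a pool of 5 breast cancer cell lines (ZR-75-1, SKBR3, HCC-38, MDA-MB-231, BT-20), each carrying 12 doxycycline-inducible Cas9 sgRNA perturbations (11 knockouts plus non-targeting sgNT), was treated with compounds for 72 h at four 10-fold doses (10 nM-10 uM or 1 nM-1 uM range). Barcodes were amplified and sequenced, and cell number was interpolated from 293T spike-in standard curves. The result is expressed as % of the median of DMSO wells. Two biological replicates.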

Q: `C[C@]1(c2nc3c(C(N)=O)cccc3[nH]2)CCCN1` [Veliparib] was tested. Which relative cell number did it give?
A: Its relative cell number is 89.6 ± 4.9.

Q: With `COc1cc(Nc2ncc3c(n2)-c2ccc(Cl)cc2C(c2c(F)cccc2OC)=NC3)ccc1C(=O)O` [Alisertib] as the compound, how does the relative cell number read?
A: The relative cell number was 48.4 ± 1.9.

Q: With `Cc1cc(N2CCOCC2)cc2[nH]c(-c3c(NC[C@@H](O)c4cccc(Cl)c4)cc[nH]c3=O)nc12` as the compound, how does the relative cell number read?
A: Its relative cell number is 30.7 ± 3.4.

Q: Which relative cell number does the source give for `Cc1ccc(S(=O)(=O)OCC(=O)Nc2ccc(C(=O)O)c(O)c2)cc1` here?
A: Its relative cell number is 89.6 ± 9.3.

Q: `C#Cc1cccc(Nc2ncnc3cc(OCCOC)c(OCCOC)cc23)c1` [Erlotinib] was tested. Which relative cell number did it give?
A: Its relative cell number is 94.8 ± 1.3.

Q: For `Cc1ccc(C(=O)N(CCCN)[C@@H](c2oc3cc(Cl)ccc3c(=O)c2Cc2ccccc2)C(C)C)cc1`, which relative cell number is on record?
A: Its relative cell number is 5.58 ± 0.82.

Q: With `CS(=O)(=O)N1CCN(Cc2cc3nc(-c4cccc5[nH]ncc45)nc(N4CCOCC4)c3s2)CC1` [GDC0941] as the compound, how does the relative cell number read?
A: Its relative cell number is 33.5 ± 0.44.

Q: `Cc1nc(Nc2n[nH]c3c2CN(C(=O)N[C@H](CN(C)C)c2ccccc2)C3(C)C)c2sccc2n1` was tested. Which relative cell number did it give?
A: Its relative cell number is 13.5 ± 5.3.

Q: With `C=CCc1cccc(/C=N/NC(=O)CN2CCN(Cc3ccccc3)CC2)c1O` [PAC1] as the compound, how does the relative cell number read?
A: The relative cell number was 33.9 ± 2.5.

Q: How did the relative cell number turn out when `COc1cc2nccc(Oc3ccc(NC(=O)C4(C(=O)Nc5ccc(F)cc5)CC4)cc3)c2cc1OC` [Cabozantinib] was run?
A: The relative cell number was 61.9 ± 9.7.

The compounds below were run on MDA-MB-231 in the same assay as above. Settings: sgRNA knockout: sgNT, 1 nM.
Experimental: as §1

Q: `CC(C)[C@]12O[C@H]1[C@@H]1O[C@]13[C@]1(O[C@H]1C[C@H]1C4=C(CC[C@@]13C)C(=O)OC4)[C@@H]2O` [Triptolide] was tested. Which relative cell number did it give?
A: Its relative cell number is 86.6 ± 8.6.

Same assay, conditions: sgRNA knockout: sgNT, 10 nM

Q: For `CC(C)(C)OC(=O)CN(Cc1ccc(Cl)cc1)Cc1ccc([N+](=O)[O-])s1` [GSK4112], which relative cell number is on record?
A: The relative cell number was 82.6 ± 9.2.

Q: How did the relative cell number turn out when `C=C1C[C@@H]2[C@H](CC[C@]3(C)C(=O)CC[C@@H]23)[C@@]2(C)C=CC(=O)C=C12` [Exemestane] was run?
A: Its relative cell number is 89.3 ± 13.

Q: How did the relative cell number turn out when `COc1cc([C@@H]2c3cc4c(cc3[C@@H](O[C@@H]3O[C@@H]5CO[C@@H](c6cccs6)O[C@H]5[C@H](O)[C@H]3O)[C@H]3COC(=O)[C@H]23)OCO4)cc(OC)c1O` [Teniposide] was run?
A: Its relative cell number is 75.8 ± 16.

Q: For `COc1cccc2cc(-c3nc([C@H]4CC[C@H](C(=O)O)CC4)n4ncnc(N)c34)[nH]c12` [OSI027], which relative cell number is on record?
A: The relative cell number was 97.4 ± 8.9.

Q: How did the relative cell number turn out when `CN(C)C/C=C/C(=O)Nc1cc2c(Nc3ccc(F)c(Cl)c3)ncnc2cc1O[C@H]1CCOC1` [Afatinib] was run?
A: Its relative cell number is 151 ± 15.

Q: `Cc1cnc(-c2cnc(NCCNc3ccc(C#N)cn3)nc2-c2ccc(Cl)cc2Cl)[nH]1` was tested. Which relative cell number did it give?
A: The relative cell number was 88.2 ± 11.

Q: Which relative cell number does the source give for `O=C(O)CC[C@H]1CC[C@@](c2cc(F)ccc2F)(S(=O)(=O)c2ccc(Cl)cc2)CC1` [MK0752] here?
A: Its relative cell number is 170 ± 61.

Q: With `CC[C@H](C)C(=O)O[C@H]1C[C@@H](C)C=C2C=C[C@H](C)[C@H](CC[C@@H]3C[C@@H](O)CC(=O)O3)[C@H]21` [Lovastatin] as the compound, how does the relative cell number read?
A: Its relative cell number is 112 ± 28.

Q: `NC(=O)Nc1sc(-c2ccc(F)cc2)cc1C(N)=O` [TPCA1] was tested. Which relative cell number did it give?
A: Its relative cell number is 111 ± 21.

Q: With `C[C@]1(c2nc3c(C(N)=O)cccc3[nH]2)CCCN1` [Veliparib] as the compound, how does the relative cell number read?
A: Its relative cell number is 135 ± 51.

Q: `COc1cc(Nc2ncc3c(n2)-c2ccc(Cl)cc2C(c2c(F)cccc2OC)=NC3)ccc1C(=O)O` [Alisertib] was tested. Which relative cell number did it give?
A: Its relative cell number is 112 ± 7.3.

Q: `Cc1cc(N2CCOCC2)cc2[nH]c(-c3c(NC[C@@H](O)c4cccc(Cl)c4)cc[nH]c3=O)nc12` was tested. Which relative cell number did it give?
A: The relative cell number was 85.2 ± 7.6.

Q: Which relative cell number does the source give for `Cc1ccc(S(=O)(=O)OCC(=O)Nc2ccc(C(=O)O)c(O)c2)cc1` here?
A: Its relative cell number is 128 ± 26.

Q: With `CC(C)[C@]12O[C@H]1[C@@H]1O[C@]13[C@]1(O[C@H]1C[C@H]1C4=C(CC[C@@]13C)C(=O)OC4)[C@@H]2O` [Triptolide] as the compound, how does the relative cell number read?
A: Its relative cell number is 44 ± 14.

Q: For `C#Cc1cccc(Nc2ncnc3cc(OCCOC)c(OCCOC)cc23)c1` [Erlotinib], which relative cell number is on record?
A: Its relative cell number is 98.8 ± 11.

Q: For `Cc1ccc(C(=O)N(CCCN)[C@@H](c2oc3cc(Cl)ccc3c(=O)c2Cc2ccccc2)C(C)C)cc1`, which relative cell number is on record?
A: Its relative cell number is 23 ± 9.

Q: With `CS(=O)(=O)N1CCN(Cc2cc3nc(-c4cccc5[nH]ncc45)nc(N4CCOCC4)c3s2)CC1` [GDC0941] as the compound, how does the relative cell number read?
A: Its relative cell number is 126 ± 30.

Q: How did the relative cell number turn out when `Cc1nc(Nc2n[nH]c3c2CN(C(=O)N[C@H](CN(C)C)c2ccccc2)C3(C)C)c2sccc2n1` was run?
A: The relative cell number was 35.5 ± 11.

Q: How did the relative cell number turn out when `C=CCc1cccc(/C=N/NC(=O)CN2CCN(Cc3ccccc3)CC2)c1O` [PAC1] was run?
A: The relative cell number was 104 ± 32.

Q: How did the relative cell number turn out when `COc1cc2nccc(Oc3ccc(NC(=O)C4(C(=O)Nc5ccc(F)cc5)CC4)cc3)c2cc1OC` [Cabozantinib] was run?
A: The relative cell number was 103 ± 8.6.

Same assay, conditions: sgRNA knockout: sgNT, 100 nM

Q: `CC(C)(C)OC(=O)CN(Cc1ccc(Cl)cc1)Cc1ccc([N+](=O)[O-])s1` [GSK4112] was tested. Which relative cell number did it give?
A: The relative cell number was 96.4 ± 7.3.

Q: Which relative cell number does the source give for `C=C1C[C@@H]2[C@H](CC[C@]3(C)C(=O)CC[C@@H]23)[C@@]2(C)C=CC(=O)C=C12` [Exemestane] here?
A: Its relative cell number is 88.2 ± 22.

Q: With `COc1cc([C@@H]2c3cc4c(cc3[C@@H](O[C@@H]3O[C@@H]5CO[C@@H](c6cccs6)O[C@H]5[C@H](O)[C@H]3O)[C@H]3COC(=O)[C@H]23)OCO4)cc(OC)c1O` [Teniposide] as the compound, how does the relative cell number read?
A: Its relative cell number is 25.4 ± 1.1.

Q: For `COc1cccc2cc(-c3nc([C@H]4CC[C@H](C(=O)O)CC4)n4ncnc(N)c34)[nH]c12` [OSI027], which relative cell number is on record?
A: Its relative cell number is 128 ± 27.

Q: How did the relative cell number turn out when `CN(C)C/C=C/C(=O)Nc1cc2c(Nc3ccc(F)c(Cl)c3)ncnc2cc1O[C@H]1CCOC1` [Afatinib] was run?
A: The relative cell number was 77.1 ± 36.

Q: `Cc1cnc(-c2cnc(NCCNc3ccc(C#N)cn3)nc2-c2ccc(Cl)cc2Cl)[nH]1` was tested. Which relative cell number did it give?
A: Its relative cell number is 92.2 ± 8.4.

Q: How did the relative cell number turn out when `O=C(O)CC[C@H]1CC[C@@](c2cc(F)ccc2F)(S(=O)(=O)c2ccc(Cl)cc2)CC1` [MK0752] was run?
A: Its relative cell number is 93.4 ± 20.

Q: `CC[C@H](C)C(=O)O[C@H]1C[C@@H](C)C=C2C=C[C@H](C)[C@H](CC[C@@H]3C[C@@H](O)CC(=O)O3)[C@H]21` [Lovastatin] was tested. Which relative cell number did it give?
A: Its relative cell number is 52.2 ± 31.

Q: Which relative cell number does the source give for `NC(=O)Nc1sc(-c2ccc(F)cc2)cc1C(N)=O` [TPCA1] here?
A: The relative cell number was 127 ± 23.

Q: Which relative cell number does the source give for `C[C@]1(c2nc3c(C(N)=O)cccc3[nH]2)CCCN1` [Veliparib] here?
A: The relative cell number was 144 ± 30.

Q: With `COc1cc(Nc2ncc3c(n2)-c2ccc(Cl)cc2C(c2c(F)cccc2OC)=NC3)ccc1C(=O)O` [Alisertib] as the compound, how does the relative cell number read?
A: The relative cell number was 50.3 ± 15.

Q: For `Cc1cc(N2CCOCC2)cc2[nH]c(-c3c(NC[C@@H](O)c4cccc(Cl)c4)cc[nH]c3=O)nc12`, which relative cell number is on record?
A: The relative cell number was 76.6 ± 42.

Q: Which relative cell number does the source give for `Cc1ccc(S(=O)(=O)OCC(=O)Nc2ccc(C(=O)O)c(O)c2)cc1` here?
A: The relative cell number was 61.9 ± 5.4.

Q: Which relative cell number does the source give for `CC(C)[C@]12O[C@H]1[C@@H]1O[C@]13[C@]1(O[C@H]1C[C@H]1C4=C(CC[C@@]13C)C(=O)OC4)[C@@H]2O` [Triptolide] here?
A: Its relative cell number is 16.5 ± 7.3.

Q: Which relative cell number does the source give for `C#Cc1cccc(Nc2ncnc3cc(OCCOC)c(OCCOC)cc23)c1` [Erlotinib] here?
A: Its relative cell number is 83.4 ± 2.6.

Q: `Cc1ccc(C(=O)N(CCCN)[C@@H](c2oc3cc(Cl)ccc3c(=O)c2Cc2ccccc2)C(C)C)cc1` was tested. Which relative cell number did it give?
A: Its relative cell number is 16.8 ± 5.6.

Q: Which relative cell number does the source give for `CS(=O)(=O)N1CCN(Cc2cc3nc(-c4cccc5[nH]ncc45)nc(N4CCOCC4)c3s2)CC1` [GDC0941] here?
A: The relative cell number was 84 ± 21.

Q: For `Cc1nc(Nc2n[nH]c3c2CN(C(=O)N[C@H](CN(C)C)c2ccccc2)C3(C)C)c2sccc2n1`, which relative cell number is on record?
A: The relative cell number was 27.3 ± 6.1.

Q: For `C=CCc1cccc(/C=N/NC(=O)CN2CCN(Cc3ccccc3)CC2)c1O` [PAC1], which relative cell number is on record?
A: The relative cell number was 134.14 ± 0.028.
